This note sets out measurements from ChEMBL document CHEMBL1145467, “SME-2-producing Serratia marcescens isolate from Switzerland” (2007).

Each structure is given as a SMILES string. Values after ≈ are worked out from the molar mass of the structure shown.

This assay has as its system Serratia marcescens. Put plainly: Antimicrobial activity against Serratia marcescens AW isolated from parotidectomy patient. In kind it is functional.
A word on the MIC: it is the lowest concentration found to suppress growth. `C[C@@H](O)[C@H]1C(=O)N2C(C(=O)O)=C(S[C@@H]3CN[C@H](C(=O)Nc4cccc(C(=O)O)c4)C3)[C@H](C)[C@H]12` [ERTAPENEM] yielded an MIC of 4 µg/mL (≈ 8.41 µM).

Compound `C[C@@H](O)[C@H]1C(=O)N2C(C(=O)O)=C(SCCNC=N)C[C@H]12` [IMIPENEM ANHYDROUS] showed an MIC of 32 µg/mL (≈ 107 µM). This MIC is about 8-fold higher than that of the compound before.

With `C[C@@H](O)[C@H]1C(=O)N2C(C(=O)O)=C(S[C@@H]3CN[C@H](C(=O)N(C)C)C3)[C@H](C)[C@H]12` [MEROPENEM], the MIC was determined as 8 µg/mL (≈ 20.9 µM).
